Our source for the IC50 and EC50 values is patent publication US20110178053A1, “AZACARBOLINE DERIVATIVES, PREPARATION METHOD THEREOF AND THERAPEUTIC USE OF SAME” (SANOFI-AVENTIS, priority 2008, published 2011).

The target of test [1] is T1, Pim-1 (Homo sapiens, UniProt P11309).
T1 construct: His6-labelled recombinant full-length human Pim-1, Pim-2 or Pim-3 protein; His6; made in house
Nature of the test: TR-FRET assay, Pim-1 kinase (phosphorylation of Bad Ser112). Format: biochemical. Conditions: TR-FRET; ATP 40 μM; read-out: IC50 Pim1. The gist of the method: (§1)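 Recombinant His6-tagged full-length human Pim-1, Pim-2 or Pim-3 phosphorylates His6-tagged full-length human Bad at 40 μM ATP (apparent KM). Phospho-Ser112 is detected by TR-FRET between Eu-labelled anti-phosphoBad and APC-labelled anti-His6 (665/615 nm ratio); 10-point duplicate series, top typically 30 μM, IC50 from 4-parameter logistic fit.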
For orientation: Time-resolved FRET reads energy transfer from a long-lived donor to a nearby acceptor.

Test [2] deals with T2, Pim-2 (Homo sapiens, UniProt Q9P1W9).
T2 construct: His6-labelled recombinant full-length human Pim-1, Pim-2 or Pim-3 protein; His6; made in house
Briefly: TR-FRET assay, Pim-2 kinase (phosphorylation of Bad Ser112). Format: biochemical. The settings on record: TR-FRET; ATP 40 μM; read-out: IC50 Pim2. Summed up:
as §1

Test [3] has as its target T3, Pim-3 (Homo sapiens, UniProt Q86V86).
T3 construct: His6-labelled recombinant full-length human Pim-1, Pim-2 or Pim-3 protein; His6; made in house
Nature of the test: TR-FRET assay, Pim-3 kinase (phosphorylation of Bad Ser112). The settings on record: TR-FRET; ATP 40 μM; read-out: IC50 Pim3. Format: biochemical. The gist of the method: as §1

Test [4] deals with PLK1 (Homo sapiens, UniProt P53350). Briefly: PLK1 biochemical inhibition.
In test [5] the test system is PI3K. Briefly: PI3K biochemical inhibition.
The test system of test [6] is EOL-1. Briefly: Cell viability assay (CellTiter-Blue), EOL-1. The test is classed as cell-based. The settings on record: Homo sapiens, EOL1, read-out: EC50 EOL-1 μM (lymphoma); EOL-1 cells; cell proliferation/viability. From the text:
(§2) The representative compounds of the invention are also screened as regards their effects on cell proliferation and viability using a variety of human tumour cell lines, which are representative of various pathological indications. These cell lines include: • Models of haematological cancers: • TF-1 (acute myelogenic leukaemia; AML M6 at the time of diagnosis); • KG-1 (AML; erythroleukaemia evolving into AML); • KG-1a (AML; sub-clone derived from immature KG-1); • EOL-1 (AML; eosinophilic leukaemia); • PL-21 (AML; M3); • ML-2 (AML; T-NHL evolving into T-ALL evolving into AML M4); • HL-60 (AML, M3); • Kasumi-1 (AML); • GDM-1 (AML); • K-562 (CML—chronic myelogenic leukaemia; blastic crisis); • JURL-MK1 (CML; blastic crisis); • DND-41 (T-ALL—-cell acute lymphoblastic leukaemia); • Jurkat (T-ALL); NALM-6 (B-ALL—B-cell ALL); • CEM (ALL; lymphosarcoma evolving into ALL); • Jeko-1 (B-NHL—B-cell non-Hodgkin lymphoma; mantle-cell lymphoma derived from a variant with large cells as a leukaemic transformation); • WSU-DLCL2 (B-NHL; large B-cell diffuse lymphoma); • RL (B-NHL; undifferentiated diffuse); • OCI-Ly10 (B-NHL); • DoHH-2 (B-NHL); • RPMI-8226 (MM—multiple myeloma); • JVM-2 (B-CLL—B-cell chronic lymphocytic leukaemia); and • JVM-3 (B-CLL) • MV4-11 (AML) • MOLM13 (AML). • Solid tumour models: • HCT-116 (bowel cancer); • HT-29 (bowel cancer); • HC-15 (bowel cancer); • H460 (lung cancer; non-small-cell lung cancer); • A375 (melanoma); • B16F10 (melanoma); • MDA-A1 (breast cancer); • MDA-MB231 (breast cancer); • MDA-MB231 adr (breast cancer); • PANC-1 (pancreatic cancer); and • PC-3 (prostate cancer).
(§3) In order to measure the viability, the tumour cells are incubated in a 96-well or 384-well format for 48, 72 or 96 hours, preferably 72 hours, with a compound of the invention at dilutions of a factor 3 with, in general, nine doses in total, the highest dose being equal to 10 μM or 30 μM. The cell viability is evaluated by adding CellTiter-Blue® (Promega, Madison, Wis., United States) for 4 hours and end-point readings are taken using a SpectraMax Genmini EM (Molecular Devices, Sunnyvale, Calif., United States). The CellTiter-Blue® cell viability assay measures the ability of the cells in culture to reduce resazurin to resorufin, the fluorescence signal intensity being directly proportional to the number of live cells.
(In general: Alamar Blue is a resazurin reagent that responds to reducing activity.)

Test [7] concerns MV4-11. Briefly: Cell viability assay (CellTiter-Blue), MV4-11. The test is classed as cell-based. Conditions: Homo sapiens; MV4-11 cells; cell proliferation/viability; read-out: IC50 MV4-11 μM (myeloma).
Description: as §2, §3

Test [8] relates to MOLM-13. Nature of the test: Cell viability assay (CellTiter-Blue), MOLM-13. Format: cell-based. The settings on record: Homo sapiens; MOLM-13 cells; cell proliferation/viability; read-out: IC50 MOLM-13 μM (myeloma).
Description: as §2, §3

Bounds are passed on as bounds.

T1 sequence (P11309 whole entry): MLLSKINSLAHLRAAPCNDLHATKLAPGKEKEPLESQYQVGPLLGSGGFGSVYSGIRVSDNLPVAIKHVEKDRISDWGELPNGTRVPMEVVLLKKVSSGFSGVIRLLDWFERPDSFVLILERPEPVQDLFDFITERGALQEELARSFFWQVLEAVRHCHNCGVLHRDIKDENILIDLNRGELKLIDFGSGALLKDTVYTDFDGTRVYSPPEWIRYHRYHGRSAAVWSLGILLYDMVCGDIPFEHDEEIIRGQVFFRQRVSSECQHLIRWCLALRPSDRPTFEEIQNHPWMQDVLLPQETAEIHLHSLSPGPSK
Sequence of PLK1 (P53350 whole entry, species assumed): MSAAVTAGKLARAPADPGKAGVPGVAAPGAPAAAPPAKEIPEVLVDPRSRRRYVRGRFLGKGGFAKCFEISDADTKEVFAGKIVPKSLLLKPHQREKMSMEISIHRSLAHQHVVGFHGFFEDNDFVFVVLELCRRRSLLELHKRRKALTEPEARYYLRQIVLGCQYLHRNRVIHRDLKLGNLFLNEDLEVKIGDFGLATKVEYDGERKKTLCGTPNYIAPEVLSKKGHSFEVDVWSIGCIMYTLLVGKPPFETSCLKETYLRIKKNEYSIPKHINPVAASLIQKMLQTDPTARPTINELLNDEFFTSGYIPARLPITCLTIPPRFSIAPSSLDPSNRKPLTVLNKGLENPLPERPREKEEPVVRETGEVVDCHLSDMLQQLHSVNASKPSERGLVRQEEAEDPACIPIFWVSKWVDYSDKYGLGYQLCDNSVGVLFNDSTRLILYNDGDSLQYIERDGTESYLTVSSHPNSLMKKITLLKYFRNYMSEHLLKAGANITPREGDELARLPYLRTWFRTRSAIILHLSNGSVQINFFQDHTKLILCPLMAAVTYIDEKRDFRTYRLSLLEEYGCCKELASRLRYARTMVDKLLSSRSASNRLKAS
T2 sequence (Q9P1W9 whole entry): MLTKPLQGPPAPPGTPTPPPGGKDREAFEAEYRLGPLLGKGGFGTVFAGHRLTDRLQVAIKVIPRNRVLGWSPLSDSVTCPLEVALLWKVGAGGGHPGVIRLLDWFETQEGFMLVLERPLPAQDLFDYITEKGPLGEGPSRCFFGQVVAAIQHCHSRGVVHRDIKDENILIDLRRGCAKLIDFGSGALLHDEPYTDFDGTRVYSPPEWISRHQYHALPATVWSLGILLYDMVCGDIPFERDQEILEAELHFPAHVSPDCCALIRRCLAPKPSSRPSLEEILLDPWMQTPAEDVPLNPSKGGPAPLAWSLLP

What is called IC50 is the concentration that inhibits the measured activity by half. With `NS(=O)(=O)c1cccc(-c2c(F)cnc3[nH]c4cnc(-c5cccnc5)cc4c23)c1` [Example 21, 3-[3-Fluoro-6-(pyrid-3-yl)-9H-pyrrolo[2,3-b:5,4-c′]dipyrid-4-yl]-benzenesulfonamide], the IC50 was 0.001 to 0.1 µM in test [1]; over 5 µM in test [2]; 0.1 to 1 µM in test [3]; 0.001 to 0.1 µM in test [4]; 1 to 5 µM in test [5].
For the molecule `COc1cc(OC)cc(-c2c(F)cnc3[nH]c4cnc(-c5cccnc5)cc4c23)c1` [Example 23, 4-(3,5-dimethoxy-phenyl)-3-fluoro-6-(pyrid-3-yl)-9H-pyrrolo-[2,3-b:5,4-c′]dipyridine], the IC50 was 0.001 to 0.1 µM in test [1]; over 5 µM in test [2]; 0.1 to 1 µM in test [3]; 1 to 5 µM in test [4]; over 5 µM in test [5].
Consider `Oc1cccc(-c2c(F)cnc3[nH]c4cnc(-c5cccnc5)cc4c23)c1` [Example 26], for which the half-maximal inhibitory concentration (IC50) was in the range of 0.001 to 0.1 µM in test [1], 1 to 5 µM in test [2], 0.1 to 1 µM in test [3] and 0.1 to 1 µM in test [5].
Consider `Fc1cnc2[nH]c3cnc(-c4cccnc4)cc3c2c1/C=C/C1CC1` [Example 27, 4-[(E)-2-cyclopropyl-ethenyl]-3-fluoro-6-(pyrid-3-yl)-9H-pyrrolo-[2,3-b:5,4-c′]dipyridine], for which the IC50 in test [1] was 0.001 to 0.1 µM; in test [2] it was over 5 µM; in test [3] it was 0.1 to 1 µM; in test [5] it was over 5 µM.
Regarding `O=S(=O)(NC1CC1)c1ccc(-c2c(F)cnc3[nH]c4cnc(-c5cccnc5)cc4c23)cc1` [Example 28, N-cyclopropyl-4-(3-fluoro-6-(pyrid-3-yl)-9H-pyrrolo[2,3-b:5,4-c′]-dipyrid-4-yl]benzene-sulfonamide], the IC50 in test [1] is 0.001 to 0.1 µM; in test [2] it was over 5 µM; in test [3] it was 0.1 to 1 µM; in test [4], 0.001 to 0.1 µM; in test [5], 1 to 5 µM.
Usually EC50 stands for the concentration giving half of the maximal effect. Turning to `COc1cnc2[nH]c3cnc(-c4cccnc4)cc3c2c1-c1ccc(NS(C)(=O)=O)cc1` [Example 44, N-[4-(3-methoxy-6-(pyrid-3-yl)-9H-pyrrolo[2,3-b:5,4-c′]dipyrid-4-yl)phenyl]methane-sulfonamide], the IC50 in test [1], in test [2], in test [3], in test [4], in test [5] and in test [7] was 0.001 to 0.1 µM in each case. Also, the half-maximal inhibitory concentration (IC50) in test [8] is 0.001 to 0.1 µM. Further, the EC50 in test [6] lay within 0.001 to 0.1 µM.
As to `CCN(CC)CCN1CCN(c2c(F)cnc3[nH]c4cnc(-c5cccnc5)cc4c23)CC1` [Example 79, N,N-diethyl-2-{4-[3-fluoro-6-(pyrid-3-yl)-9H-pyrrolo[2,3-b:5,4-c′]dipyrid-4-yl]-piperazin-1-yl}-ethanamine], the IC50 in test [1] was in the range of 0.001 to 0.1 µM; in test [2], 1 to 5 µM; in test [3], 0.001 to 0.1 µM; in test [4], 0.1 to 1 µM; in test [5], 1 to 5 µM.
Consider `Fc1cnc2[nH]c3cnc(-c4cccnc4)cc3c2c1N1CCN(CCCN2CCCCC2)CC1` [Example 86, 3-fluoro-4-{4-[3-(piperid-1-yl)propyl]piperazin-1-yl}-6-(pyrid-3-yl)-9H-pyrrolo-[2,3-b:5,4-c′]-dipyridine], for which the IC50 in test [1] was 0.001 to 0.1 µM; in test [2] it was 0.1 to 1 µM; in test [3] it was 0.001 to 0.1 µM; in test [4], 0.1 to 1 µM; in test [5] it was over 5 µM; in test [7], 0.1 to 1 µM. Also, the EC50 in test [6] is 0.1 to 1 µM.
Consider `CN(C)CCOc1ccc(-c2c(F)cnc3[nH]c4cnc(-c5cccnc5)cc4c23)cc1` [Example 96, 2-{4-[3-fluoro-6-(pyrid-3-yl)-9H-pyrrolo[2,3-b:5,4-c′]dipyrid-4-yl]-phenoxy}-N,N-dimethylethanamine], for which the concentration for half-maximal inhibition (IC50) in test [1] lay within 0.001 to 0.1 µM; in test [2], 0.1 to 1 µM; in test [3], 0.001 to 0.1 µM; in test [4], 0.1 to 1 µM; in test [7], 0.1 to 1 µM; in test [8], 0.1 to 1 µM. In addition, the EC50 in test [6] fell in the range of 0.001 to 0.1 µM.
On to `Fc1cnc2[nH]c3cnc(-c4cccnc4)cc3c2c1-c1ccc(OCCN2CCCC2)cc1` [Example 97, 3-fluoro-6-(pyrid-3-yl)-4-{4-[2-(pyrrolidin-1-yl)ethoxy]phenyl}-9H-pyrrolo[2,3-b:5,4-c′]dipyridine], for which the IC50 was 0.001 to 0.1 µM in test [1]; 0.1 to 1 µM in test [2]; 0.001 to 0.1 µM in test [3]; 0.001 to 0.1 µM in test [4]; 0.1 to 1 µM in test [7]; 0.1 to 1 µM in test [8]. In addition, the half-maximal effective concentration (EC50) in test [6] was in the range of 0.1 to 1 µM.
For `CC(COc1ccc(-c2c(F)cnc3[nH]c4cnc(-c5cccnc5)cc4c23)cc1)CN(C)C` (centres unmarked) [Example 98, 3-{4-[3-fluoro-6-(pyrid-3-yl)-9H-pyrrolo[2,3-b:5,4-c′]dipyrid-4-yl]phenoxy}-N,N,2-trimethylpropan-1-amine], the half-maximal inhibitory concentration (IC50) was 0.001 to 0.1 µM in test [1]; 0.001 to 0.1 µM in test [2]; 0.001 to 0.1 µM in test [3]; 0.1 to 1 µM in test [4]; 0.1 to 1 µM in test [7]; 0.1 to 1 µM in test [8]. The EC50 in test [6] was in the range of 0.001 to 0.1 µM.
`CCN(CC)CCOc1ccc(-c2c(F)cnc3[nH]c4cnc(-c5cccnc5)cc4c23)cc1` [Example 100, N,N-diethyl-2-{4-[3-fluoro-6-(pyrid-3-yl)-9H-pyrrolo[2,3-b:5,4-c′]dipyrid-4-yl]-phenoxy}ethanamine]: the half-inhibitory concentration (IC50) is 0.001 to 0.1 µM in test [1]; 0.1 to 1 µM in test [2]; 0.001 to 0.1 µM in test [3]; 0.001 to 0.1 µM in test [4]; 0.1 to 1 µM in test [7]; 0.1 to 1 µM in test [8]. In addition, in test [6], the EC50 fell in the range of 0.001 to 0.1 µM.
With `CCN(CC)C(=O)c1cccc(-c2cnc3[nH]c4cnc(-c5cccnc5)cc4c3c2)c1` [Example 119, N,N-diethyl-3-[6-(pyrid-3-yl)-9H-pyrrolo[2,3-b:5,4-c′]dipyrid-3-yl]-benzamide], the IC50 lay within 0.001 to 0.1 µM in test [1]; 0.1 to 1 µM in test [2]; 0.001 to 0.1 µM in test [3]; 0.1 to 1 µM in test [4]; 0.1 to 1 µM in test [7]; 0.1 to 1 µM in test [8]. The EC50 in test [6] was 0.001 to 0.1 µM.
On to `Cc1n[nH]c(C)c1-c1cnc2[nH]c3cnc(-c4cccnc4)cc3c2c1` [Example 120, 3-(3,5-dimethyl-1H-pyrazol-4-yl)-6-(pyrid-3-yl)-9H-pyrrolo[2,3-b:5,4-c′]-dipyridine], for which the half-maximal inhibitory concentration (IC50) in test [1] is 0.001 to 0.1 µM; in test [2], over 5 µM; in test [3] it was 0.001 to 0.1 µM; in test [4], 0.1 to 1 µM; in test [7], 0.001 to 0.1 µM; in test [8], 0.1 to 1 µM. Besides, the EC50 in test [6] is 0.001 to 0.1 µM.
On to `CCN(CC)CCn1cc(-c2cnc3[nH]c4cnc(-c5cccnc5)cc4c3c2)cn1` [Example 123, N,N-diethyl-2-{4-[6-(pyrid-3-yl)-9H-pyrrolo-[2,3-b:5,4-c′]-dipyrid-3-yl]-1H-pyrazol-1-yl}-ethanamine], for which the half-maximal inhibitory concentration (IC50) is 0.001 to 0.1 µM in test [1]; 0.1 to 1 µM in test [2]; 0.001 to 0.1 µM in test [3]; 1 to 5 µM in test [4]; 0.001 to 0.1 µM in test [7]; 0.001 to 0.1 µM in test [8]. Moreover, in test [6], the EC50 was in the range of 0.001 to 0.1 µM.
